In patent publication US10906890B2, “Triazole phenyl compounds as agonists of the APJ receptor” (AMGEN INC., priority 2016, dated 2021) one finds EC50 data, which are given here for 20 compounds.

As a reminder, the EC50 is the concentration that produces a half-maximal response.

Sequence of human APJ receptor (P35414 whole entry): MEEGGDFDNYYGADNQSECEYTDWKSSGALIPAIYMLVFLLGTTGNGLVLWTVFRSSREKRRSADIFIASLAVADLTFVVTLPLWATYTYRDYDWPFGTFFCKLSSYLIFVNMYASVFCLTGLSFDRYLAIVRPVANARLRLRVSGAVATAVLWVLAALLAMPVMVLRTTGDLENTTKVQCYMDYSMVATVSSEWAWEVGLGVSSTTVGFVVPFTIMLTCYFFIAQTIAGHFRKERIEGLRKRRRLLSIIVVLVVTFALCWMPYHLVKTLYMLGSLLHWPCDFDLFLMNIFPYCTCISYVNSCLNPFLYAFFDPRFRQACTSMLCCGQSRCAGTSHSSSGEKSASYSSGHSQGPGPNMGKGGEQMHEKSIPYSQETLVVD

The assay deals with human APJ receptor (Homo sapiens (Human), UniProt P35414). In words: [35S]GTPγS binding assay on membranes from CHO cells stably expressing human APJ receptor. Type of assay: biochemical. Particulars: means of several independent experiments, read-out: Activity hAPJ SPA EC50 IP. The method, then:
The human APJ receptor was cloned by polymerase chain reaction and the gene encoding the receptor was subcloned in pFLAG-CMV™-3 expression vector (Sigma, Saint Louis, Mo. USA) in-house at Amgen. A GTPγS binding assay was performed on membranes prepared from CHO cells stably expressing human APJ receptor. The optimum experimental conditions for the concentrations of GDP, MgCl2, and NaCl in the assay buffer were initially determined. […] Incubation was at RT for 90 min and the microplate was read using a ViewLux™ ultra HTS Microplate Imager (PerkinElmer, Inc.). All the results presented are means of several independent experiments and analyzed by non-linear regression methods using the commercially available program Prism (GraphPad, San Diego, Calif.) providing the EC50 values detailed in Table 28.
In general terms: GTPγS is a poorly hydrolysed GTP analogue; its binding reports G protein activation.
Take `COc1ncnc(OC)c1-n1c(NS(=O)(=O)[C@H]2C[C@@H](OC(C)C)CN(c3ncc(F)cn3)C2)nnc1-c1ccccc1` (single isomer, unassigned) [Example 64.0, (3R,5S)-N-(4-(4,6-dimethoxy-5-pyrimidinyl)-5-phenyl-4H-1,2,4-triazol-3-yl)-1-(5-fluoro-2-pyrimidinyl)-5-(1-methylethoxy)-3-piperidinesulfonamide or (3S,5R)-N-(4-(4,6-dimethoxy-5-pyrimidinyl)-5-phenyl-4H-1,2,4-triazol-3-yl)-1-(5-fluoro-2-pyrimidinyl)-5-(1-methylethoxy)-3-piperidinesulfonamide]: the EC50 stood at 4.7 nM.
Then `COc1cccc(OC)c1-n1c(NS(=O)(=O)[C@@H](C)[C@H](OC)c2ncc(C)cn2)nnc1-c1ccc(Cl)cc1Cl` [Example 71.0, (1R,2S)-N-(5-(2,4-dichlorophenyl)-4-(2,6-dimethoxyphenyl)-4H-1,2,4-triazol-3-yl)-1-methoxy-1-(5-methyl-2-pyrimidinyl)-2-propanesulfonamide], with 160 nM; and `COc1cccc(OC)c1-n1c(NS(=O)(=O)[C@@H](C)[C@H](OC)c2ncc(Cl)cn2)nnc1-c1cccc2cn(C)nc12` [Example 91.0], with 2 nM.
In the case of `COc1cccc(OC)c1-n1c(NS(=O)(=O)[C@@H](C)[C@H](OC)c2ncc(C)cn2)nnc1-c1cccc2cnccc12` [Example 95.0], the EC50 turned out to be 340 nM.
Take `COc1ccc(OC)c(-c2nnc(NS(=O)(=O)[C@@H](C)[C@H](OC)c3ncc(C)cn3)n2-c2c(OC)cccc2OC)c1` [Example 79.0, (1R,2S)-N-(5-(2,5-dimethoxyphenyl)-4-(2,6-dimethoxyphenyl)-4H-1,2,4-triazol-3-yl)-1-methoxy-1-(5-methyl-2-pyrimidinyl)-2-propanesulfonamide]: the EC50 amounted to 3.8 nM.
Then `COc1cnc([C@@H](C)[C@H](C)S(=O)(=O)Nc2nnc(-c3ccccc3Br)n2C2COC(C)(C)OC2)nc1` [Example 128.0], with 910 nM.
Then `COc1cccc(OC)c1-n1c(NS(=O)(=O)[C@@H](C)[C@H](OC)c2ncc(C)cn2)nnc1-c1ccc2c(c1)CCO2` [Example 80.0, (1R,2S)-N-(5-(2,3-dihydro-1-benzofuran-5-yl)-4-(2,6-dimethoxyphenyl)-4H-1,2,4-triazol-3-yl)-1-methoxy-1-(5-methyl-2-pyrimidinyl)-2-propanesulfonamide], with 3.5 nM; and `COc1cccc(OC)c1-n1c(NS(=O)(=O)[C@@H](C)[C@H](OC)c2ncc(C)cn2)nnc1-c1ccccc1` [Example 77.0, (1R,2S)-N-(4-(2,6-dimethoxyphenyl)-5-phenyl-4H-1,2,4-triazol-3-yl)-1-methoxy-1-(5-methyl-2-pyrimidinyl)-2-propanesulfonamide], with 1 nM.
Take `COc1cccc(OC)c1-n1c(NS(=O)(=O)[C@@H](C)[C@H](OC)c2ncc(C)cn2)nnc1-c1cccc(C#N)c1` [Example 86.0, (1R,2S)-N-(5-(3-cyanophenyl)-4-(2,6-dimethoxyphenyl)-4H-1,2,4-triazol-3-yl)-1-methoxy-1-(5-methyl-2-pyrimidinyl)-2-propanesulfonamide]: the EC50 came out at 10.6 nM.
Turning to `COc1cccc(OC)c1-n1c(NS(=O)(=O)[C@H]2C[C@@H](O)CN(c3ncc(F)cn3)C2)nnc1-c1ccccc1` (single isomer, unassigned) [Example 56.0, (3R,5S)-N-(4-(2,6-dimethoxyphenyl)-5-phenyl-4H-1,2,4-triazol-3-yl)-1-(5-fluoro-2-pyrimidinyl)-5-hydroxy-3-piperidinesulfonamide or (3S,5R)-N-(4-(2,6-dimethoxyphenyl)-5-phenyl-4H-1,2,4-triazol-3-yl)-1-(5-fluoro-2-pyrimidinyl)-5-hydroxy-3-piperidinesulfonamide], the EC50 came out at 30 nM.
Then `COc1cccc(OC)c1-n1c(NS(=O)(=O)[C@@H](C)[C@H](OC)c2ncc(C)cn2)nnc1-c1ccc2c(c1)OC(F)(F)O2` [Example 39.0, (1R,2S)-N-(5-(2,2-difluoro-1,3-benzodioxol-5-yl)-4-(2,6-dimethoxyphenyl)-4H-1,2,4-triazol-3-yl)-1-methoxy-1-(5-methyl-2-pyrimidinyl)-2-propanesulfonamide], with 160 nM; and `COc1ncnc(OC)c1-n1c(NS(=O)(=O)[C@@H](C)[C@H](C)c2ncc(C)cn2)nnc1-c1cccc(C(F)(F)F)c1` [Example 48.0], with 23 nM.
Then `CO[C@H](c1ncc(Cl)cn1)[C@H](C)S(=O)(=O)Nc1nnc(-c2cccc(S(C)(=O)=O)c2)n1C1CC1` [Example 121.0, (1R,2S)-1-(5-Chloropyrimidin-2-yl)-N-(4-cyclopropyl-5-(3-(methylsulfonyl)phenyl)-4H-1,2,4-triazol-3-yl)-1-methoxypropane-2-sulfonamide], with 590 nM; and `COCC1(n2c(NS(=O)(=O)[C@@H](C)[C@H](OC)c3ncc(Cl)cn3)nnc2-c2ccccc2)CC1` [Example 97.0, (1R,2S)-1-(5-Chloro-2-pyrimidinyl)-1-methoxy-N-(4-(1-(methoxymethyl)cyclopropyl)-5-phenyl-4H-1,2,4-triazol-3-yl)-2-propanesulfonamide], with 1 nM; and `C[C@H](c1ncc(Cl)cn1)[C@H](C)S(=O)(=O)Nc1nnc(-c2ccccc2)n1C1CCOCC1` [Example 61.0, (2S,3R)-3-(5-chloro-2-pyrimidinyl)-N-(5-phenyl-4-(tetrahydro-2H-pyran-4-yl)-4H-1,2,4-triazol-3-yl)-2-butanesulfonamide], with 69 nM.
On to `COc1cccc(OC)c1-n1c(NS(=O)(=O)[C@@H](C)[C@H](OC)c2ncc(C)cn2)nnc1-c1ccc2nccnc2c1` [Example 84.0, (1R,2S)-N-(4-(2,6-dimethoxyphenyl)-5-(6-quinoxalinyl)-4H-1,2,4-triazol-3-yl)-1-methoxy-1-(5-methyl-2-pyrimidinyl)-2-propanesulfonamide], for which the EC50 was found to be 55 nM.
Then `CCN(CC)c1ccc(-c2nnc(NS(=O)(=O)[C@@H](C)[C@H](OC)c3ncc(C)cn3)n2-c2c(OC)cccc2OC)cc1` [Example 83.0, (1R,2S)-N-(5-(4-(diethylamino)phenyl)-4-(2,6-dimethoxyphenyl)-4H-1,2,4-triazol-3-yl)-1-methoxy-1-(5-methyl-2-pyrimidinyl)-2-propanesulfonamide], with 89 nM; and `Cc1cnc([C@H](OC(C)C)[C@H](C)S(=O)(=O)Nc2nnc(-c3ccccc3)n2-c2c(F)cccc2F)nc1` [Example 42.0, (1S,2S)-N-(4-(2,6-difluorophenyl)-5-phenyl-4H-1,2,4-triazol-3-yl)-1-(1-methylethoxy)-1-(5-methyl-2-pyrimidinyl)-2-propanesulfonamide], with 3.4 nM; and `COc1cccc(OC)c1-n1c(NS(=O)(=O)[C@@H](C)[C@H](OC)c2ncc(C)cn2)nnc1-c1ccc(Cl)c(Cl)c1` [Example 70.0, (1R,2S)-N-(5-(3,4-dichlorophenyl)-4-(2,6-dimethoxyphenyl)-4H-1,2,4-triazol-3-yl)-1-methoxy-1-(5-methyl-2-pyrimidinyl)-2-propanesulfonamide], with 3.8 nM.
Then `COc1cccc(OC)c1-n1c(NS(=O)(=O)[C@@H](C)[C@H](OC)c2ncc(C)cn2)nnc1-c1cc(C(F)(F)F)cc(C(F)(F)F)c1` [Example 68.0, (1R,2S)-N-(5-(3,5-bis(trifluoromethyl)phenyl)-4-(2,6-dimethoxyphenyl)-4H-1,2,4-triazol-3-yl)-1-methoxy-1-(5-methyl-2-pyrimidinyl)-2-propanesulfonamide], with 4.7 nM.
